Measurements: patent US8969565B2, “Imidazo[1,2-b]pyridazine-based compounds, compositions comprising them, and methods of their use” (Lexicon Pharmaceuticals, Inc., priority 2012, dated 2015)

Key:
[1] = target: T1, AAK1 (Homo sapiens, UniProt Q2M2I8); assay: P81 filter plate assay; assay type: biochemical; conditions: full-length human AAK1, Mu2 substrate
T1 construct: HA; expressed in transfected cells; host or cells: HEK293F
Method: Compounds were serially diluted into a Labcyte LDV plate (Labcyte, cat#LP-0200) using a Mutiprobe (PerkinElmer) and Biomek FX (Beckman Coulter) so that the highest compound concentration was at 96 μM. Compounds were then pinged (75 nL per well) into a Greiner 384-well reaction plate (Greiner, #781076) using an ECHO 550 Liquid Handler (Labcyte). A total of 12 μl reaction buffer (IMAP buffer containing Tween and DTT, from Molecular Devices) was then added to each well of columns 1 and 13 for the negative controls and 12 μl of 2×AAK1 (0.2 nM full-length human protein, NCBI accession no. NP_055726.2) was added to the remaining wells. Enzyme was then pre-incubated with compound for 10 minutes at RT. Reactions were initiated upon Minitrak (PerkinElmer) addition of 12 μl substrate mix containing 2×Mu2 (0.2 μM, full length human protein), 2× cold ATP (2 μM), and 1.3 μCi of hot ^33P-ATP. Reactions proceeded for one hour at RT. Meanwhile, Millipore 384-well P81 filter plates (Millipore, catalog #MZPHNOW10) were placed on a plate washer (Zoom ZW, from Titertek) and pre-wet with 50 μl 1% phosphoric acid. Kinase reactions were then stopped upon addition of 24 μl of 2% phosphoric acid to each well and the Minitrak was then used to transfer 40 μl from each well into the pre-wet Millipore 384-well P81 filter plates. Reaction mixtures were incubated for 10 minutes at RT in the P81 plates, followed by washing five times with 100 μl/well of 1% phosphoric acid using the Zoom filter washer. The bottom of each filter plate was sealed followed by addition of 20 μl Microscint 40 to each well, sealing the top of the plates with Flashplate cover, and then waiting one hour until reading on the TopCount (PerkinElmer).

[2] = target: T1, AAK1; assay: HEK281 cell-based assay (phospho-mu2 Western blot in transfected HEK293F cells); conditions: 3 hours incubation, read-out: CBA IC50
How it was run: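 After 3 hours at 37° C. with compound (five 3-fold-spaced concentrations, DMEM+0.5% FBS), transiently transfected HEK293F cells expressing full-length human AAK1 and Flag-tagged mu2 were lysed. mu2 phosphorylation was read by anti-phospho-mu2 immunoblot, normalized against total mu2 by anti-Flag blot.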

T1 sequence (Q2M2I8 1-863 isoform Q2M2I8-2): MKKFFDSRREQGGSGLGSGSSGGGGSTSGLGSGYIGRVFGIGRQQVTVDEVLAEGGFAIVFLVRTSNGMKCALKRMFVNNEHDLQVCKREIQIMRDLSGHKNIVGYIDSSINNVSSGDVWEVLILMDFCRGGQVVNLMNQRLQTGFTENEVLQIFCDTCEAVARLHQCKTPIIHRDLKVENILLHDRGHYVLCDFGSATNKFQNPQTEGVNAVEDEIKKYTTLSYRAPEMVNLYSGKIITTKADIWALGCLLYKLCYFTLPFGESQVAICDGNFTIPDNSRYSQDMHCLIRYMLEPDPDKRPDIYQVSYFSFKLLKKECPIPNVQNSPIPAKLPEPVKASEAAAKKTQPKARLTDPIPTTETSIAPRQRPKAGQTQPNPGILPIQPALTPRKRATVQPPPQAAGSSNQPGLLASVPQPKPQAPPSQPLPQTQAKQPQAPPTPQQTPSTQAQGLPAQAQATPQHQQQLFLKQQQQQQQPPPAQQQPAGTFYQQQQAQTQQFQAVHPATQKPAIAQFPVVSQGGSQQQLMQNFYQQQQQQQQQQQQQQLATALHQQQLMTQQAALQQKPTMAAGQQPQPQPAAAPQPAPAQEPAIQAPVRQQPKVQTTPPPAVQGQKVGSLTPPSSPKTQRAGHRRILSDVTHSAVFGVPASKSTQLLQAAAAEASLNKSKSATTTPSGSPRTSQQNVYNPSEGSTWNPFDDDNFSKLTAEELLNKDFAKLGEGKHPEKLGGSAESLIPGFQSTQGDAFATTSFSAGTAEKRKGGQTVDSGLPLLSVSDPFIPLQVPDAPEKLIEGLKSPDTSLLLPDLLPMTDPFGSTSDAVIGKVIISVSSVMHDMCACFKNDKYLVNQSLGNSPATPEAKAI

IC50 [1] [nM] | IC50 [2] [nM] | SMILES
≤ 100 |  | CC(=O)c1cnc2ccc(N3CCN(C(=O)C4(N)CCCC4)CC3)nn12 [1-(6-(4-(1-aminocyclopentanecarbonyl)piperazin-1-yl)imidazo[1,2-b]pyridazin-3-yl)ethanone]
≤ 100 |  | CC(C)(C)C(=O)N1CCN(c2ccc3ncc(-c4ccccc4)n3n2)CC1 [2,2-dimethyl-1-(4-(3-phenylimidazo[1,2-b]pyridazin-6-yl)piperazin-1-yl)propan-1-one]
≤ 10 |  | O=C(OC1CCOC1)N1CCC[C@H]1CNc1ccc2ncc(-c3ccncc3)n2n1 (stereo partly drawn) [(2S)-tetrahydrofuran-3-yl 2-(((3-(pyridin-4-yl)imidazo[1,2-b]pyridazin-6-yl)amino)methyl)pyrrolidine-1-carboxylate]
≤ 10 |  | O=C(OC1CCOC1)N1CCC[C@H]1CNc1ccc2ncc(Br)n2n1 (stereo partly drawn) [(2S)-tetrahydrofuran-3-yl 2-(((3-bromoimidazo[1,2-b]pyridazin-6-yl)amino)methyl)pyrrolidine-1-carboxylate]
≤ 10 |  | OCc1ccc(-c2cnc3ccc(NCCOC4CCCC4)nn23)cc1 [(4-(6-((2-(cyclopentyloxy)ethyl)amino)imidazo[1,2-b]pyridazin-3-yl)phenyl)methanol]
≤ 10 |  | CC(C)CC(=O)N1CCC[C@H]1CNc1ccc2ncc(-c3ccnc(F)c3)n2n1 [(S)-1-(2-(((3-(2-fluoropyridin-4-yl)imidazo[1,2-b]pyridazin-6-yl)amino)methyl)pyrrolidin-1-yl)-3-methylbutan-1-one]
≤ 10 |  | CC(C)CC(=O)N1CCC[C@H]1CNc1ccc2ncc(C3=CCCC3)n2n1 [(S)-1-(2-(((3-(cyclopent-1-en-1-yl)imidazo[1,2-b]pyridazin-6-yl)amino)methyl)pyrrolidin-1-yl)-3-methylbutan-1-one]
≤ 10 |  | CCCC(=O)N1CCC[C@H]1CNc1ccc2ncc(-c3ccncc3)n2n1 [(S)-1-(2-(((3-(pyridin-4-yl)imidazo[1,2-b]pyridazin-6-yl)amino)methyl)pyrrolidin-1-yl)butan-1-one]
 | ≤ 100 | CC(C)OC(=O)N(CCNc1ccc2ncc(-c3ccccc3)n2n1)C(C)C [isopropyl isopropyl(2-((3-phenylimidazo[1,2-b]pyridazin-6-yl)amino)ethyl)carbamate]
 | ≤ 100 | CNC(=O)c1ccc(-c2cnc3ccc(NCCN(C)C(=O)OC(C)C)nn23)cc1 [isopropyl methyl(2-((3-(4-(methylcarbamoyl)phenyl)imidazo[1,2-b]pyridazin-6-yl)amino)ethyl)carbamate]
 | ≤ 10 | CC(C)OC(=O)N(C)CCNc1ccc2ncc(-c3ccc(C4CCCN4)cc3)n2n1 (centres unmarked) [isopropyl methyl(2-((3-(4-(pyrrolidin-2-yl)phenyl)imidazo[1,2-b]pyridazin-6-yl)amino)ethyl)carbamate]
 | ≤ 100 | CC(C)OC(=O)N(C)CCNc1ccc2ncc(-c3cscn3)n2n1 [isopropyl methyl(2-((3-(thiazol-4-yl)imidazo[1,2-b]pyridazin-6-yl)amino)ethyl)carbamate]
 | ≤ 10 | COC(=O)N(CCNc1ccc2ncc(-c3ccncc3OC)n2n1)C(C)C [methyl isopropyl(2-((3-(3-methoxypyridin-4-yl)imidazo[1,2-b]pyridazin-6-yl)amino)ethyl)carbamate]
 | ≤ 1000 | CCCOC(=O)N(CCNc1ccc2ncc(-c3ccncc3OC)n2n1)C(C)C [propyl isopropyl(2-((3-(3-methoxypyridin-4-yl)imidazo[1,2-b]pyridazin-6-yl)amino)ethyl)carbamate]
 | ≤ 10 | CC(C)(C)OC(=O)N1CCCC1CCNc1ccc2ncc(-c3ccc(CN)cc3)n2n1 (centres unmarked) [tert-butyl 2-(2-((3-(4-(aminomethyl)phenyl)imidazo[1,2-b]pyridazin-6-yl)amino)ethyl)pyrrolidine-1-carboxylate]
 | ≤ 100 | CC(C)(C)OC(=O)N1CCCC1CCNc1ccc2ncc(-c3ccc(C(N)=O)cc3)n2n1 (centres unmarked) [tert-butyl 2-(2-((3-(4-carbamoylphenyl)imidazo[1,2-b]pyridazin-6-yl)amino)ethyl)pyrrolidine-1-carboxylate]
 | ≤ 10 | COc1cnccc1-c1cnc2ccc(N3CCN(C(=O)OC(C)(C)C)CC3)nn12 [tert-butyl 4-(3-(3-methoxypyridin-4-yl)imidazo[1,2-b]pyridazin-6-yl)piperazine-1-carboxylate]
 | ≤ 100 | CC(C)(C)OC(=O)N1CCN(c2ccc3ncc(Cl)n3n2)CC1 [tert-butyl 4-(3-chloroimidazo[1,2-b]pyridazin-6-yl)piperazine-1-carboxylate]

IC50 [1] [nM] | IC50 [2] [nM] | SMILES
 | ≤ 10 | CN(CCNc1ccc2ncc(-c3ccnc(N)c3)n2n1)C(=O)OC(C)(C)C [tert-butyl (2-((3-(2-aminopyridin-4-yl)imidazo[1,2-b]pyridazin-6-yl)amino)ethyl)(methyl)carbamate]
 | ≤ 100 | CN(CCNc1ccc2ncc(-c3ccccc3F)n2n1)C(=O)OC(C)(C)C [tert-butyl (2-((3-(2-fluorophenyl)imidazo[1,2-b]pyridazin-6-yl)amino)ethyl)(methyl)carbamate]
 | ≤ 100 | CN(CCNc1ccc2ncc(-c3ccnc(F)c3)n2n1)C(=O)OC(C)(C)C [tert-butyl (2-((3-(2-fluoropyridin-4-yl)imidazo[1,2-b]pyridazin-6-yl)amino)ethyl)(methyl)carbamate]
 | ≤ 100 | COc1ccccc1-c1cnc2ccc(NCCN(C)C(=O)OC(C)(C)C)nn12 [tert-butyl (2-((3-(2-methoxyphenyl)imidazo[1,2-b]pyridazin-6-yl)amino)ethyl)(methyl)carbamate]
 | ≤ 100 | CN(CCNc1ccc2ncc(-c3cccc(C(N)=O)c3)n2n1)C(=O)OC(C)(C)C [tert-butyl (2-((3-(3-carbamoylphenyl)imidazo[1,2-b]pyridazin-6-yl)amino)ethyl)(methyl)carbamate]
 | ≤ 100 | COc1cccc(-c2cnc3ccc(NCCN(C)C(=O)OC(C)(C)C)nn23)c1 [tert-butyl (2-((3-(3-methoxyphenyl)imidazo[1,2-b]pyridazin-6-yl)amino)ethyl)(methyl)carbamate]
 | ≤ 1000 | COc1cnccc1-c1cnc2ccc(NCCN(C)C(=O)OC(C)(C)C)nn12 [tert-butyl (2-((3-(3-methoxypyridin-4-yl)imidazo[1,2-b]pyridazin-6-yl)amino)ethyl)(methyl)carbamate]
 | ≤ 100 | CC(C)(C)OC(=O)NCCNc1ccc2ncc(-c3ccc(CN)cc3)n2n1 [tert-butyl (2-((3-(4-(aminomethyl)phenyl)imidazo[1,2-b]pyridazin-6-yl)amino)ethyl)carbamate]
 | ≤ 100 | CN(CCNc1ccc2ncc(-c3ccc(CC#N)cc3)n2n1)C(=O)OC(C)(C)C [tert-butyl (2-((3-(4-(cyanomethyl)phenyl)imidazo[1,2-b]pyridazin-6-yl)amino)ethyl)(methyl)carbamate]
 | ≤ 10 | CC(C)N(CCNc1ccc2ncc(-c3ccc(C(N)=O)cc3)n2n1)C(=O)OC(C)(C)C [tert-butyl (2-((3-(4-carbamoylphenyl)imidazo[1,2-b]pyridazin-6-yl)amino)ethyl)(isopropyl)carbamate]
 | ≤ 10 | CC(=O)c1ccc(-c2cnc3ccc(NCCN(C)C(=O)OC(C)(C)C)nn23)s1 [tert-butyl (2-((3-(5-acetylthiophen-2-yl)imidazo[1,2-b]pyridazin-6-yl)amino)ethyl)(methyl)carbamate]
 | ≤ 100 | CN(CCCNc1ccc2ncc(-c3ccc(CN)cc3)n2n1)C(=O)OC(C)(C)C [tert-butyl (3-((3-(4-(aminomethyl)phenyl)imidazo[1,2-b]pyridazin-6-yl)amino)propyl)(methyl)carbamate]
 | ≤ 100 | CC(=O)c1ccc(-c2cnc3ccc(NCCCN(C)C(=O)OC(C)(C)C)nn23)s1 [tert-butyl (3-((3-(5-acetylthiophen-2-yl)imidazo[1,2-b]pyridazin-6-yl)amino)propyl)(methyl)carbamate]
 | ≤ 100 | COc1cnccc1-c1cnc2ccc(NCCN(C(=O)OC(C)(C)C)C(C)C)nn12 [tert-butyl isopropyl(2-((3-(3-methoxypyridin-4-yl)imidazo[1,2-b]pyridazin-6-yl)amino)ethyl)carbamate]
 | ≤ 100 | CNC(=O)c1ccc(-c2cnc3ccc(NCCN(C)C(=O)OC(C)(C)C)nn23)cc1 [tert-butyl methyl(2-((3-(4-(methylcarbamoyl)phenyl)imidazo[1,2-b]pyridazin-6-yl)amino)ethyl)carbamate]
 | ≤ 10 | CN(CCNc1ccc2ncc(-c3ccc(C4CCCN4)cc3)n2n1)C(=O)OC(C)(C)C (centres unmarked) [tert-butyl methyl(2-((3-(4-(pyrrolidin-2-yl)phenyl)imidazo[1,2-b]pyridazin-6-yl)amino)ethyl)carbamate]
 | ≤ 100 | CN(CCNc1ccc2ncc(-c3ccncc3)n2n1)C(=O)OC(C)(C)C [tert-butyl methyl(2-((3-(pyridin-4-yl)imidazo[1,2-b]pyridazin-6-yl)amino)ethyl)carbamate]
